Three compounds from US7964534B2, “Nuclear magnetic resonance assembly of chemical entities using advanced antenna probes” (Triad Liquidating Company, LLC, priority 2003, dated 2011) can be followed below.

Experiment [1] addresses T1, p38α (Homo sapiens, UniProt Q16539). Put plainly: WaterLOGSY competition experiments. The format is binding. An excerpt:
A peptide having the sequence […] (SEQ ID NO:1) is a known phosphorylation substrate for p38 as described, for example, in Chen et al. Biochemistry 39:2079-2087 (2000). […] This site is shown in the lower panel of FIG. 7, and is referred to as the SL (specificity ligand) site, since extending a bi-ligand library into this site off of an ATP mimic might provide additional specificity.

Experiment [2] deals with p38α MAP kinase (Homo sapiens, UniProt Q16539). Briefly: phosphorylation of myelin basic protein (MBP) by p38α. The experiment is classed as biochemical. On the procedure:
The TTM2001.101.A09 bi-ligand compound and the fragments from which it was constructed were tested as inhibitors of p38α enzymatic activity in an assay measuring phosphorylation of myelin basic protein (MBP) by p38α.

The target in experiment [3] is T1, p38α. Briefly: line broadening in 1D 1H NMR spectra. The experiment is classed as binding. The arrangement: dose or concentration left out as unconfirmed. The following applies: 50 micromolar compound. How it is done: The ability of TTM2001.101.A09 to bind to p38α was determined by comparing the degree of line broadening in 1D ^1H NMR spectra for the compound in the presence of p38α compared to in the absence of p38α. […] (FIG. 4b) compared to the spectrum obtained for 50 micromolar of TTM2001.101.A09 in the absence of p38α (FIG. 4a), indicative of tight binding between p38α and TTM2001.101.A09.

Experiment [4] concerns the target unactivated p38α MAP kinase (Homo sapiens, UniProt Q16539). Briefly: WaterLOGSY screen of PBBA structure analogs. The experiment is classed as binding. The note with it: 10 to 30 micromolar p38α, 0.1 to 1.0 millimolar compound, 4° C. From the text: A library of 29 PBBA structure analogs was screened against unlabeled p38α MAP kinase (p38α) as follows. Samples containing 10 to 30 micromolar concentration of unactivated p38α MAP kinase and 0.1 to 1.0 millimolar concentration of one of the PBBA structure analogs were obtained. The samples were screened using WaterLOGSY with saturations times of 2 s (frequency selective excitation via a train of 232 6 ms it pulses with a GAUSS profile at an 80 Hz RF field strength) with […] using WATERGATE at 4° C. WaterLOGSY is further described in Dalvit et al. J. Biomol. NMR 21:349-59 (2001) Dalvit et al. J. Magn. Res. B112:282-288 (1996) and Dalvit et al., J. Biomol. NMR 11:437-444 (1998).

The target of experiment [5] is ATP site of p38α (Homo sapiens, UniProt Q16539). Put plainly: fluorescence polarization displacement of fluorescently tagged staurosporine. The experiment is classed as binding. For orientation: Fluorescence polarisation rises when a labelled molecule tumbles more slowly, as on binding a larger partner.
Chain of ATP site of p38α (Q16539 whole entry): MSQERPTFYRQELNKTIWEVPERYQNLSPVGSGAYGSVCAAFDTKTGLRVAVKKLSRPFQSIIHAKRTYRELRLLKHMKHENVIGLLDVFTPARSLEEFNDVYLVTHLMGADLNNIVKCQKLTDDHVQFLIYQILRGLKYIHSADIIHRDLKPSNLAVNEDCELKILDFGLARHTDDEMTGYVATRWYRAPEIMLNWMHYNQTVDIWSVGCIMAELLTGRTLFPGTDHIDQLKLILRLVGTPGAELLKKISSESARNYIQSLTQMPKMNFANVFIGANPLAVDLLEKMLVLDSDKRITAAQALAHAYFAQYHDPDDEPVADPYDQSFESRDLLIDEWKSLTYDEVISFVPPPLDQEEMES

Chain of p38α MAP kinase (Q16539 whole entry, the tested form may be a part): as the sequence (Q16539 whole entry) above
T1 sequence (Q16539 whole entry): as above
Chain of unactivated p38α MAP kinase (Q16539 whole entry): as above

Take “IPTTPITTTYFFFKKK [peptide, known phosphorylation substrate for p38]”: the “displacement of PBBA from p38α” value in experiment [1] is “could not displace PBBA from p38α”.
As usually defined, the Kd is the constant that tells how readily two partners part at equilibrium. For orientation: IC50 means the midpoint of a concentration-inhibition curve. Turning to `O=C(O)c1ccc(CCCCCCSCc2cc(-n3cnc4cc(C(=O)O)ccc43)ccc2F)cc1` [TTM2001.101.A09], in experiment [2] (IC50 compared with starting fragments PBBA and TTM2001.082.B09), the “tighter than either of the starting fragments” value is “greater than 100 fold”. Also, the Kd in experiment [2] (correction of the IC50 for high ATP concentration, read-out: Kd for binding between p38α and compound) is ~0.3 µM. This compound also had a half-maximal inhibitory concentration (IC50) in experiment [2] (inhibition of MBP phosphorylation by p38α) of 1.7 µM. For the same compound, in experiment [3], the “line broadening in presence of p38α (binding)” value is listed as “significant line-broadening”.
For `CCCCc1ccc(C(=O)O)cc1` [PBBA, p-butyl benzoic acid], the “inhibition of phosphorylation of MBP protein by p38α” value in experiment [2] is “inhibit phosphorylation of MBP protein by p38α”. In addition, the “cross-saturation effects with p38α (binding)” value in experiment [4] is listed as “showed cross-saturation effects with p38α indicating binding to the protein”. Also, the “displacement of fluorescently tagged staurosporine” value in experiment [5] is “not able to displace a fluorescently tagged staurosporine”.
